Where no end group is shown, it is not given here. [ ]: non-standard residue; d: D form.
Assays:
caspase 8 = assay: Caspase 8 activity in H929 cells (fluorescent substrate); assay type: cell-based; conditions: 6 or 24 hrs
Description: Cells were treated for 6 hours (FIG. 22A) or 24 hours (FIG. 22B) and caspase 8 activity was measured using a fluorescent substrate. Shown is a representative experiment performed in triplicates. The experiment was repeated twice and similar results were obtained.
(§1) Detection of Apoptosis. A flow cytometric assay measuring Annexin V/PI staining was used to measure apoptotic cells following 24 hours of peptide exposure as previously described (Damiano J S et al. Blood, 1999; 93:1658-1667). The assay was performed in triplicate and 3 independent experiments were performed. Caspase 3 and 8 activity was measured at 6 and 24 hrs post peptide treatment per manufactures' instructions (BD Biosciences, San Jose, Calif.). The caspase assays were performed in triplicate and repeated twice.

8226 cells [1] = assay: Detection of apoptosis, annexin V staining and FACS, suspension culture; assay type: cell-based
Description: FIG. 17 is a graph showing that HYD1 induces apoptosis as a single agent in 8226 and H929 cells cultured in suspension. 8226 and H929 cells were either treated with varying concentrations of HYD1 or vehicle control (equal volume sterile double distilled water) for 24 hours and apoptotic cells were detected by FACS analysis of annexin V positive cells. HYD1 specific apoptosis equals cell death due to peptide minus any apoptosis detected in control cells.
as §1
Myeloma cells were plated at a density of 400,000 cells per ml in a 24 well plate. Cells were treated with the indicated dose of the peptide for 24 hours. Following 24 hrs of peptide exposure, apoptotic cells were detected using Annexin V staining and FACS analysis. Ten thousand events were analyzed by flow cytometry (Becton Dickinson, San Jose, Calif.). Experiments were performed in triplicate and repeated twice. Shown is a representative figure.

β1 integrin = molecular target: T1, β1 integrin (Homo sapiens, UniProt P05556); assay: Binding of peptide to the cell surface
T1 construct: endogenous in cells
From the text: Another aspect of the invention concerns a method of identifying modulators of peptide binding (a screen for molecules that displace peptide binding). Agents that are identified as being capable of competing with the HYD1 peptides of the invention for binding to β1 integrin may have utility as cytotoxic agents for research or therapy (e.g., for cancer treatment). The method comprising providing a candidate agent (such as a chemical compound, antibody, nucleic acid, or peptide); and determining whether the agent inhibits (e.g., disrupts, prevents, or interferes with), the ability of a HYD1 peptide of the invention (HYD1 or a fragment or variant thereof) to bind to β1 integrin on a cell surface (e.g., cancer cell surface) and/or inhibit β1 integrin mediated adhesion, in vitro or in vivo (e.g., in an animal model). Preferably, the cell is a cancer cell such as a myeloma cell or a cell of other cancer types (see, for example Table 1). Preferably, the peptide is labeled with a detectable moiety (e.g., a fluorescent tag, such as […]) to facilitate the determining step. Examples of controls that may be utilized in carrying out the screening method include, but are not limited to, unlabeled HYD1 peptides (HYD1, or a fragment or variant thereof); scrambled peptides (such as HYD1S); β1 integrin blocking antibody; and non-specific surface antigen binding antibody (such as CD138 for myeloma cells). Advantageously, using the screening assay, labeled HYD1 or fragments or variants thereof, can be used to screen candidates such as small molecules, on natural product libraries, in a rapid, high-throughput fashion. […] Fluorescence polarization (FP) analysis can be used to screen small molecule or natural product libraries for discovery of novel compounds that mimic the specific binding and potentially the biological activity of HYD1. The FP assay is based on the extent of depolarization of the free versus bond peptide, which can be accurately measured on commercially available FP plate readers. […] In summary, a high throughput screen (HTS) can be used to bind small molecules prior to the addition of an HYD1 probe and molecules of interest can be identified by displacement of bond peptide, with a corresponding increase in unbound peptide by FP analysis. An analogous high-throughput binding assay based on fluorescence polarization, which allows screening for small molecules that bind to the STAT3 SH2 domain, is described in Schust J. and Berg T., Anal Biochem., 2004 Jul. 1; 330(1):114-8. […]

8226 cells [2] = assay: Cell adhesion to fibronectin (crystal violet staining); assay type: cell-based; conditions: varying concentrations, 30 minutes pre-incubation, 2 hours adhesion
Description: FIGS. 30A and 30B are graphs showing that HYD1 but not the scrambled derivative HYD1S inhibited cell adhesion of both 8226 and H929 cells to FN. Varying concentrations of either HYD1, HYD1S, or a 1:100 dilution of either α4β1 or α5β1 integrin functional blocking antibodies was added to either (FIG. 30A) 8226 cell or (FIG. 30B) H929 cells for 30 minutes prior to adding cells to either FN or BSA coated wells. Cells were allowed to adhere for 2 hours and adherent cells were measured by crystal violet staining at 540 nm. Shown is the mean and standard deviation of a representative experiment performed in quadruplicate. Three independent experiments were performed and similar results were obtained.
Quantification of cell adhesion to fibronectin. […] Cell adhesion was detected by crystal violet staining as previously described (Damiano J S et al. Blood, 1999; 93:1658-1667; Hazlehurst L A et al. Oncogene, 2000; 19:4319-4327).
Briefly, 8226 myeloma cells were pre-incubated with varying concentrations of either HYD1 or the scrambled HYD1S peptide for 30 minutes prior to allowing cells to attach to FN for two hours. Following two hours of cell adhesion, the amount of cells adherent to FN was measured. […] Twenty-four hours after drug treatment, apoptosis was measured by Annexin V-PE positive events by FACS analysis. […]

T1 sequence (P05556 21-798): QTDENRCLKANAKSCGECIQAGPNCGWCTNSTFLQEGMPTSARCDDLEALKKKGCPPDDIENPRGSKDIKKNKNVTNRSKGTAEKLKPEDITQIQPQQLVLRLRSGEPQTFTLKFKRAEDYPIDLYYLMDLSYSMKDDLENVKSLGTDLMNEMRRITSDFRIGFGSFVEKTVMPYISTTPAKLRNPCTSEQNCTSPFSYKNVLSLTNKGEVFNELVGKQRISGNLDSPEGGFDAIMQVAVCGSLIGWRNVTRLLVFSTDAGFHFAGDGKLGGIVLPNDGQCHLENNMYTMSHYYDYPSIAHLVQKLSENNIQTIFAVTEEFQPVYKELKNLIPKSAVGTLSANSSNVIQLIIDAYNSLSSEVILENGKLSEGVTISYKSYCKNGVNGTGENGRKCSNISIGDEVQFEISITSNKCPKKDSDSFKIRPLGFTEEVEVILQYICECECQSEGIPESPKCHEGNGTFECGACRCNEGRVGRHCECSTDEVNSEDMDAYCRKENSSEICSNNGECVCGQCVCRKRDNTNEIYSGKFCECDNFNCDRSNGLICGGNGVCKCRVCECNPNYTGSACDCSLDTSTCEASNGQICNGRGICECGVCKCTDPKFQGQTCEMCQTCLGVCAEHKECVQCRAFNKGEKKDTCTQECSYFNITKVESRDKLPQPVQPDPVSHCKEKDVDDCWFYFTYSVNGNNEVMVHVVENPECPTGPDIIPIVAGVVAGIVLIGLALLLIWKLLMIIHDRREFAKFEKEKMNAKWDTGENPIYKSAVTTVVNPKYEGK

Substance: kikmviswkg ([dK][dI][dK][dM][dV][dI][dS][dW][dK]G) [HYD1]
- caspase 8 activity (caspase 8): no caspase 8 activity was detected
- induction of annexin V positive cells (8226 cells [1]; suspension culture, single agent, 24 hours): dose dependent induction of annexin V positive cells
- melphalan-induced apoptosis in cells cultured in suspension (8226 cells [1]; suspension, peptide with melphalan): increased melphalan-induced apoptosis
- binding to the cell surface (β1 integrin): bind to the cell surface
- blocking of cell surface binding by β1 integrin antibody (β1 integrin): is blocked
- blocking of adhesion of 8226 cells to the extracellular matrix FN (8226 cells [2]): blocks adhesion of 8226 and H929 cells to the extracellular matrix FN in a dose dependent manner
